{
  "source": "the NIST ThermoML archive (doi:10.1021/je200921u)",
  "settings": "Liquid, Ebulliometric method (Recirculating still)",
  "note": "Numbers after ± are expanded uncertainties.",
  "data": [
    {"smiles": "CCO", "note": "[ethanol]", "values": [
      {"measurement": "vapor or sublimation pressure", "setting": "351.35 K", "result": "101.3 ± 2.6", "unit": "kPa"},
      {"measurement": "vapor or sublimation pressure", "setting": "356.11 K", "result": "121.3 ± 3.1", "unit": "kPa"},
      {"measurement": "vapor or sublimation pressure", "setting": "363.55 K", "result": "161.3 ± 4.1", "unit": "kPa"},
      {"measurement": "vapor or sublimation pressure", "setting": "369.55 K", "result": "201.3 ± 5.1", "unit": "kPa"}
    ]},
    {"smiles": "CC(C)O", "note": "[propan-2-ol]", "values": [
      {"measurement": "vapor or sublimation pressure", "setting": "355.35 K", "result": "101.3 ± 2.6", "unit": "kPa"},
      {"measurement": "vapor or sublimation pressure", "setting": "359.95 K", "result": "121.3 ± 3.1", "unit": "kPa"},
      {"measurement": "vapor or sublimation pressure", "setting": "367.65 K", "result": "161.3 ± 4.1", "unit": "kPa"},
      {"measurement": "vapor or sublimation pressure", "setting": "373.65 K", "result": "201.3 ± 5.1", "unit": "kPa"}
    ]},
    {"smiles": "Cc1ccccc1", "note": "[toluene]", "values": [
      {"measurement": "vapor or sublimation pressure", "setting": "383.55 K", "result": "101.3 ± 2.7", "unit": "kPa"},
      {"measurement": "vapor or sublimation pressure", "setting": "390.25 K", "result": "121.3 ± 3.2", "unit": "kPa"},
      {"measurement": "vapor or sublimation pressure", "setting": "390.26 K", "result": "121.3 ± 3.2", "unit": "kPa"},
      {"measurement": "vapor or sublimation pressure", "setting": "400.75 K", "result": "161.3 ± 4.3", "unit": "kPa"},
      {"measurement": "vapor or sublimation pressure", "setting": "409.65 K", "result": "201.3 ± 5.3", "unit": "kPa"}
    ]}
  ]
}
